Assay results published in patent US20150315218A1, “SALTS OF PRODRUGS OF PIPERAZINE AND SUBSTITUTED PIPERIDINE ANTIVIRAL AGENTS” (Bristol-Myers Squibb Company, priority 2004, published 2015).
≈ marks a conversion by molar mass, not a printed value. Where a name gives a salt, the structure may show the parent alone. Read-outs that look alike come from different tables or passages of the source. Each block holds one compound with its values, some of them ahead of it.

Assays:
[1] = IV and PO pharmacokinetic studies of prodrug salts (Iab, Ibb, Icb) in the rat, with historical parent data; type: in vivo, Sprague-Dawley rats; settings: for AUC: read-out: AUCtot; for Cmax: read-out: Cmax; for half-life: read-out: T1/2 (converted); for MRT: read-out: MRT
Description: (§1) All blood samples (0.3 mL) were colleted in microtainers containing K2EDTA (Becton Dickinson, Franklin Lakes, N.J.) and placed on chipped ice. After centrifugation, plasma was separated and stored at −20° C. until analysis. The mono-lysine salt of Iab (Form 3, Lot 1) was used for the pharmacokinetic studies. The dosing solutions of Iab were prepared in either sterile water (for IV administration in dogs and monkeys) or distilled water (for all other dose administration).
Male Sprague-Dawley rats (300-350 g, Hilltop Lab Animals, Inc., Scottsdale, Pa.) with cannulas implanted in the jugular vein were used. The rats were fasted overnight in the PO pharmacokinetic studies. Blood samples were collected from the jugular vein.
In the IV study, Iab was delivered at 1.4 mg/kg (free acid, or 1.1 mg/kg of IVa equivalent) as a bolus over 0.5 min (n=3).
In the PO study, Iab was administered at 7.9 mg/kg (free acid, or 6.3 mg/kg of IVa equivalent) by oral gavage (n=3). The concentration of the dosing solution was 4.0 mg/mL, and the dosing volume was 2 mL/kg.
The pharmacokinetic parameters of Iab and IVa were calculated by Non-Compartmental Analysis using the […]™ software program (version 4.0.2, InnaPhase Co., Philadelphia, Pa.). The Cmax and Tmax values were recorded directly from experimental observations. The AUC0-n and AUCtot values were calculated using the mixed log-linear trapezoidal summations. The total body clearance (Cl), mean residence time (MRT), and the steady state volume of distribution (Vss) were also calculated after intravenous administration. The absolute oral bioavailability (expressed as %) was estimated by taking the ratio of dose-normalized AUC values after oral doses to those after intravenous doses.
as §1, with “Ibb” for “Iab”, “3)” for “3, Lot 1)”
(§2) The Cmax and Tmax values were recorded directly from experimental observations. The AUC0-n and AUCtot values were calculated using the mixed log-linear trapezoidal summations. The total body clearance (Cl), mean residence time (MRT), and the steady state volume of distribution (Vss) were also calculated after intravenous administration. The absolute oral bioavailability (expressed as %) was estimated by taking the ratio of dose-normalized AUC values after oral doses to those after intravenous doses.
In the IV study, Icb was delivered at 1.4 mg/kg (free acid, or 1.1 mg/kg of IVe equivalent) as a bolus over 0.5 min (n=3).
In the PO study, Icb was administered at 6.9 mg/kg (free acid, or 5.6 mg/kg of IVe equivalent) by oral gavage (n=3).
as §2

[2] = IV and PO pharmacokinetic studies of prodrug salts (Iab, Ibb, Icb) in the dog, with historical parent data; type: in vivo, beagle dogs; settings: for concentration at 24 h / concentration at 24 hr: read-out: C-24 hr; for Cmax: read-out: Cmax
Description: The IV and PO studies of Iab were conducted in a crossover fashion in three male beagle dogs (11±1.1 kg, Marshall Farms USA Inc., North Rose, N.Y.). There was a two-week washout period between the IV and PO studies.
(§3) In the IV study, Iab was infused via the cephalic vein at 1.2 mg/kg (free acid, or 0.95 mg/kg of IVa equivalent) over 5 min at a constant rate of 0.1 mL/kg/min. The concentration of the dosing solution was 2.4 mg/mL, and the dosing volume was 0.5 mL/kg. Serial blood samples were collected from the femoral artery before dosing and at 5, 10, 15, 30, 45 min, 1, 2, 4, 6, 8 and 24 hr after dosing.
In the PO study, the dogs were fasted overnight before dosing. Iab was administered by oral gavage at 6.6 mg/kg (free acid, or 5.2 mg/kg of IVa equivalent). The concentration of the dosing solution was 13.2 mg/mL, and the dosing volume was 0.5 mL/kg. Serial blood samples were collected before dosing and at 15, 30, 45 min, 1, 2, 4, 6, 8 and 24 hr after dosing.
The IV and PO studies of Ibb were conducted in male beagle dogs (10±0.78 kg, Marshall Farms USA Inc., North Rose, N.Y.). Three dogs were used in each study. Of the three dogs, two same dogs were used for both IV and PO studies. There was a two-week washout period between the IV and PO studies.
The concentration of the dosing solution was 2.6 mg/mL, and the dosing volume was 0.5 mL/kg. Serial blood samples were collected from the femoral artery before dosing and at 5, 10, 15, 30, 45 min, 1, 2, 4, 6, 8 and 24 hr after dosing.
In the PO study, the dogs were fasted overnight before dosing. […] The concentration of the dosing solution was 7.0 mg/mL, and the dosing volume was 1 mL/kg. Serial blood samples were collected before dosing and at 15, 30, 45 min, 1, 2, 4, 6, 8 and 24 hr after dosing.
The IV and PO studies of Icb were conducted in a crossover fashion in three male beagle dogs (12±2.8 kg, Marshall Farms USA Inc., North Rose, N.Y.). There was a two-week washout period between the IV and PO studies.
as §3, with “Icb” for “Iab”, “1.3” for “1.2”, “1.0” for “0.95”, “IVe” for “IVa”, “2.6” for “2.4”
In the PO study, the dogs were fasted overnight before dosing. […] The concentration of the dosing solution was 12 mg/mL, and the dosing volume was 0.5 mL/kg. Serial blood samples were collected before dosing and at 15, 30, 45 min, 1, 2, 4, 6, 8 and 24 hr after dosing.

physchem = settings: aqueous, aqueous buffer, thermodynamic from solid
[3] = Sprague-Dawley, plasma, historical parent, PO 5 mg/kg, read-out: Bioavailability (%)
[4] = Sprague-Dawley, plasma, historical parent, PO 5 mg/kg, read-out: Tmax (hr), PO
[5] = male, Sprague-Dawley, plasma, oral prodrug, calculated from historical IV data of parent, read-out: Bioavailability (%) of parent from prodrug
[6] = male, Sprague-Dawley, plasma, parent after oral prodrug (~5-6 mg/kg parent equivalent), read-out: Tmax (hr), PO
[7] = plasma, oral, 5 mg/kg, read-out: C-24 hr
[8] = plasma, po, 5 mg/kg, read-out: Bioavailability
[9] = plasma, po, 5 mg/kg, read-out: Tmax
[10] = beagle, plasma, historical parent, PO 5 mg/kg, read-out: Bioavailability (%)
[11] = beagle, plasma, historical parent, PO 5 mg/kg, read-out: Tmax (hr), PO
[12] = male, beagle, plasma, oral prodrug, read-out: Bioavailability (%) of parent from prodrug
[13] = male, beagle, plasma, parent after oral prodrug (~5 mg/kg parent equivalent), read-out: Tmax (hr), PO
[14] = plasma, iv, 1 mg/kg, read-out: AUCtot
[15] = plasma, iv, 1 mg/kg, read-out: MRT
[16] = plasma, iv, 1 mg/kg, read-out: Vdss
[17] = plasma, po, 5 mg/kg, read-out: AUCtot
[18] = male, beagle, in vivo, iv, 1.28 mg/kg

Vdss ([1]; IV IVb 1 mg/kg, historical IVb): 0.49 ± 0.26 L/kg
bioavailability ([1]; Sprague-Dawley (rats), breed of dogs and monkeys not stated, plasma, po, range over rats, dogs and monkeys, read-out: oral bioavailabilities of parent after administration of prodrug): 50 to 310%
bioavailability [1, 3]: 60%
Tmax [1, 4]: 4.7 h
AUC ([1]; in vivo, po, 5 mg/kg): 86 ± 33 µM·h
Cmax ([1]; in vivo, po, 5 mg/kg): 9.5 ± 2.8 µM
half-life ([1]; male, Sprague-Dawley, plasma, iv, […]): 3 ± 1.8 h
bioavailability [1, 5]: 50%
Tmax [1, 6]: 0.83 h
Cmax ([1]; male, Sprague-Dawley, plasma, po, 6.6 mg/kg): 19 ± 1.8 µM
Tmax ([1]; male, Sprague-Dawley, plasma, po, 6.6 mg/kg, read-out: Tmax): 0.83 ± 0.14 h
AUC ([1]; plasma, iv, 1 mg/kg): 24 ± 3.2 µM·h
MRT ([1]; plasma, iv, 1 mg/kg): 5.6 ± 3.6 h
half-life ([1]; plasma, iv, 1 mg/kg): 5.9 ± 4.9 h
concentration at 24 h [1, 7]: 0.16 µM
bioavailability [1, 8]: 60%
half-life ([1]; plasma, po, 5 mg/kg): 3.7 ± 0.86 h
Tmax [1, 9]: 4.7 ± 1.2 h
bioavailability [2, 10]: 179%
Tmax [2, 11]: 0.5 h
half-life ([2]; male, beagle, plasma, iv, […], read-out: T1/2 (converted)): 2 ± 0.21 h
bioavailability [2, 12]: 310%
bioavailability ([2]; male, beagle, plasma, oral, 7 mg/kg, read-out: Bioavailability): 310%
concentration at 24 h ([2]; male, beagle, plasma, oral, 7 mg/kg): 0.037 ± 0.026 µM
Tmax [2, 13]: 0.4 h
AUC ([2]; male, beagle, plasma, po, 7 mg/kg, read-out: AUCtot): 66 ± 17 µM·h
Cmax ([2]; male, beagle, plasma, po, 7 mg/kg): 20 ± 2.4 µM
half-life ([2]; male, beagle, plasma, po, 7 mg/kg, read-out: T1/2 (converted)): 2.6 ± 0.21 h
Tmax ([2]; male, beagle, plasma, po, 7 mg/kg, read-out: Tmax): 0.4 ± 0.13 h
AUC [2, 14]: 3.8 µM·h
clearance ([2]; plasma, iv, 1 mg/kg, read-out: CLtot): 9.8 mL/min/kg
MRT [2, 15]: 1.8 h
half-life ([2]; plasma, iv, 1 mg/kg, read-out: T1/2 (converted)): 1.6 h
Vd [2, 16]: 1.1 L/kg
concentration at 24 h ([2]; plasma, oral, 5 mg/kg): 0.034 µM
AUC [2, 17]: 30 ± 11 µM·h
bioavailability [2, 8]: 179 ± 56%
Cmax ([2]; plasma, po, 5 mg/kg): 7.7 ± 0.71 µM
half-life ([2]; plasma, po, 5 mg/kg, read-out: T1/2 (converted)): 2.7 ± 0.4 h
Tmax [2, 9]: 0.5 ± 0.25 h
solubility (physchem): 7 to 190 µg/mL (≈ 15.6 to 425 µM)
Compound: O=C(C(=O)N1CCN(C(=O)c2ccccc2)CC1)c1c[nH]c2c(-n3ccnn3)ncc(F)c12 [IVb]

T1/2 ([1]; male, Sprague-Dawley, in vivo, iv, […]): 5.04 ± 0.72 min
AUC [2, 18]: 0.61 ± 0.2 µM·h
MRT [2, 18]: 0.14 ± 0.021 h
Vd [2, 18]: 0.5 ± 0.088 L/kg
clearance [2, 18]: 64 ± 18 mL/min/kg
half-life [2, 18]: 0.25 ± 0.1 h
Compound: COc1cnc(-n2cnc(C)n2)c2c1c(C(=O)C(=O)N1CCN(C(=O)c3ccccc3)CC1)cn2COP(=O)(O)O [Icb, [3-[(4-benzoylpiperazin-1-yl)(oxo)acetyl]-4-methoxy-7-(3-methyl-1H-1,2,4-triazol-1-yl)-1H-pyrrolo[2,3-c]pyridin-1-yl]methyl dihydrogen phosphate, 2-amino-2-(hydroxymethyl)propane-1,3-diol salt (1:1)]

AUCtot ([1]; PO IVc 5 mg/kg, historical IVc): 111 ± 25 µM·h
bioavailability [1, 3]: 82%
Tmax [1, 4]: 4 h
bioavailability [1, 5]: 80%
bioavailability ([1]; male, Sprague-Dawley, plasma, oral, […], read-out: Bioavailability): 80%
Tmax [1, 6]: 0.8 h
Tmax ([1]; male, Sprague-Dawley, plasma, po, […], read-out: Tmax): 0.8 ± 0.3 h
AUC ([1]; plasma, iv, 1 mg/kg): 27 ± 4 µM·h
MRT ([1]; plasma, iv, 1 mg/kg): 4.5 ± 0.77 h
Vd [1, 16]: 0.36 ± 0.098 L/kg
concentration at 24 hr [1, 7]: 0.19 ± 0.048 µM
bioavailability [1, 8]: 82%
Cmax ([1]; plasma, po, 5 mg/kg): 13 ± 3.6 µM
Tmax [1, 9]: 4 h
bioavailability ([1]; plasma, po, range over rats, dogs and monkeys, read-out: oral bioavailabilities of parent after administration of prodrug): 80 to 122%
bioavailability [2, 10]: 89%
Tmax [2, 11]: 1.3 h
AUC ([2]; male, beagle, plasma, iv, 1.28 mg/kg, read-out: AUCtot): 9.8 ± 3.6 µM·h
bioavailability [2, 12]: 104%
bioavailability ([2]; male, beagle, plasma, oral, 6.05 mg/kg, read-out: Bioavailability): 104%
concentration at 24 hr ([2]; male, beagle, plasma, oral, 6.05 mg/kg): 0.22 ± 0.16 µM
Tmax [2, 13]: 0.58 h
AUC ([2]; male, beagle, plasma, po, 6.05 mg/kg, read-out: AUCtot): 72 ± 27 µM·h
Cmax ([2]; male, beagle, plasma, po, 6.05 mg/kg): 16 ± 3.9 µM
Tmax ([2]; male, beagle, plasma, po, 6.05 mg/kg, read-out: Tmax): 0.58 ± 0.38 h
AUC [2, 14]: 14 ± 2.5 µM·h
MRT [2, 15]: 6.3 ± 1.9 h
Vd [2, 16]: 0.93 ± 0.14 L/kg
concentration at 24 hr ([2]; plasma, oral, 5 mg/kg): 0.15 ± 0.027 µM
AUC [2, 17]: 63 ± 2.4 µM·h
bioavailability [2, 8]: 89 ± 12%
Cmax ([2]; plasma, po, 5 mg/kg): 9.6 ± 0.87 µM
Tmax [2, 9]: 1.3 ± 0.58 h
Compound: COc1cnc(-n2cnc(C)n2)c2[nH]cc(C(=O)C(=O)N3CCN(C(=O)c4ccccc4)CC3)c12 [IVc]
